Data from article PMC8383802 (ACS chemical neuroscience, 2020).
pIC50: −log10 of the molar value.

Tests used:
[1] = system: Meth self-administered rats; conditions: cited from earlier work
[2] = system: methamphetamine (Meth)-induced hyper-locomotor activity; conditions: cited from earlier work
[3] = system: cocaine self-administered mice; assay: Cocaine self-administration in mice
[4] = system: WT C57/BL6 mice; format: in vivo
[5] = Pharmacokinetic study of KVA-D-88 in mice; format: in vivo
[6] = target: PDE4B (Homo sapiens, UniProt Q07343); assay: IC50 determination on PDE4 isoforms in vitro; format: binding; conditions: read-out: IC50 on PDE4B
Sequence of PDE4B (Q07343 whole entry, canonical isoform): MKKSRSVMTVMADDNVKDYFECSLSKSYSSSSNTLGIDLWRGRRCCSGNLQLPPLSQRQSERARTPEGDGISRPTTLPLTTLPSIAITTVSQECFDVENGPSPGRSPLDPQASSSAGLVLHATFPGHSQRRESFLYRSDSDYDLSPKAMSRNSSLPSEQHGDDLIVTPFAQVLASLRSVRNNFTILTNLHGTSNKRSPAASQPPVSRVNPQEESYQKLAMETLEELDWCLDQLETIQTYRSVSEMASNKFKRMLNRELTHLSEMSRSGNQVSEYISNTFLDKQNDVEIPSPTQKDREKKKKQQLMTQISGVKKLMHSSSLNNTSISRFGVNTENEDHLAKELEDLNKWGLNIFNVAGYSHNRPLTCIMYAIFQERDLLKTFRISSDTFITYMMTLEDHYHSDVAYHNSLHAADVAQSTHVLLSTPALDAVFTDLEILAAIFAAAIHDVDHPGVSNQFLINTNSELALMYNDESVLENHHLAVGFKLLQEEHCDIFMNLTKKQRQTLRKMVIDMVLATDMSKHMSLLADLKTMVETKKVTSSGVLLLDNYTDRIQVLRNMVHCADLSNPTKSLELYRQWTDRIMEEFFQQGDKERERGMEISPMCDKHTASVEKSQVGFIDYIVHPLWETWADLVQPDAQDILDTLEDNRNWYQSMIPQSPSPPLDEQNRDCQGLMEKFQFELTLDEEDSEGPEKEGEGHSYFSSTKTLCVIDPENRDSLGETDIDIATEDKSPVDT

[7] = Brain and blood concentration of KVA-D-88 in mice; format: in vivo
[8] = target: PDE4D (Homo sapiens, UniProt Q08499); assay: IC50 determination on PDE4 isoforms in vitro; format: binding; conditions: read-out: IC50 on PDE4D
Sequence of PDE4D (Q08499 whole entry, canonical isoform): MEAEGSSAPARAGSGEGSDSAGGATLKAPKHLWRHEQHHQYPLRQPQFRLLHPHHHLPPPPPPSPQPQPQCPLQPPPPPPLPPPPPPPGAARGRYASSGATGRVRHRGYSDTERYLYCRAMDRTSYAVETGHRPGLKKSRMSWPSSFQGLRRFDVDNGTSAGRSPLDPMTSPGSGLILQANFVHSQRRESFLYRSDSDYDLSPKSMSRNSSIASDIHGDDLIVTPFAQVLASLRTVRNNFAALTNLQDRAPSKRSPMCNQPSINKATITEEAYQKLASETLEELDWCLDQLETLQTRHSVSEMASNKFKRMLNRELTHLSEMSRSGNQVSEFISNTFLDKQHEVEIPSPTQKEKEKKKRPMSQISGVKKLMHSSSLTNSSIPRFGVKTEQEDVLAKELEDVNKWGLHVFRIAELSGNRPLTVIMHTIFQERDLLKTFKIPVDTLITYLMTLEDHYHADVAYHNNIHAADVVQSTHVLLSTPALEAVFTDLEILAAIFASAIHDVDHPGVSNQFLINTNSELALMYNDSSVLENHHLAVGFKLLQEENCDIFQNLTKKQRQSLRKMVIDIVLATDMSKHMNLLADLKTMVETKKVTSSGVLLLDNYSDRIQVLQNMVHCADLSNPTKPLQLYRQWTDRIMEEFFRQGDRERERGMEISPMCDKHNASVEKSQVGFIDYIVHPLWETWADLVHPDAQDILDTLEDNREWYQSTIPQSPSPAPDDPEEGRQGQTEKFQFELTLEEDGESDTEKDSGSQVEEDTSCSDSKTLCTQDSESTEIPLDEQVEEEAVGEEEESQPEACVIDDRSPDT

[9] = system: cocaine reward; conditions: cited from earlier work
[10] = system: morphine-induced hyper-locomotor activity; conditions: cited from earlier work
[11] = system: alcohol intake; conditions: cited from earlier work; for alcohol intake: mice, without altering total fluid intake, alcohol-induced sedation or alcohol metabolism
[12] = system: alcohol self-administration; conditions: cited from earlier work
[13] = system: heroin self-administration; conditions: cited from earlier work
[14] = FR1 schedule, 2 h, 5 and 2.5 mg/kg i.p. 30 min before, P < 0.05
[15] = FR3 schedule, 2 h session, 5 mg/kg, P < 0.05

For `CC(C)C(=O)c1c(C(C)C)nn2ccccc12` [ibudilast], the “drug seeking and intake behaviors” value ([1]; Meth self-administered rats) is listed as “decreased drug seeking and intake behaviors”, the “Meth-mediated seeking and consumption behaviors” value [1] is listed as “effective in attenuating” and the “Meth-induced hyper-locomotor activity and sensitization” value [2] is listed as “reduced”.

In the case of `O=C(c1cc2cccnc2n1-c1ccc(Cl)c(Cl)c1)N1CC(F)(F)C1` [KVA-D-88], the “rate of cocaine self-administration” value ([3]; FR1 schedule, 5.0 mg/kg, P < 0.05) was “strikingly reduced”, the “number of active nose-pokes” value [3, 14] was “significantly decreased” and the “number of cocaine infusions” value [3, 14] was “significantly decreased”. For the same compound, the “numbers of active nose-poke” value [3, 15] was “significantly decreased”, the “numbers of cocaine infusions” value [3, 15] was “significantly decreased” and the break point ([3]; PR schedule, 3 h session, 5 mg/kg, P < 0.05) was “significantly decreased the numbers of break point”. The “fold stronger than apremilast on cocaine inhibition” value ([3]; cocaine self-intake, comparison of effective doses) was roughly 10 fold, the “effect on cocaine self-intake (active nose poke), dose-response” value (shortened to “effect on cocaine self-intake”) ([3]; dose 0.5 mg/kg) was “no inhibitory effect” and the “effect on cocaine self-intake” value ([3]; dose 1.0 mg/kg) was “no inhibitory effect”. For the same compound, the “effect on cocaine self-intake” value ([3]; dose 2 mg/kg) was “showed the inhibitory effects but did not reached the significance”, the “effect on cocaine self-intake” value ([3]; dose 4 mg/kg, P < 0.05) was “significant effects” and the “effect on cocaine-mediated hyper-locomotion” value ([4]; female mice, both testing doses (5 or 10 mg/kg i.p.), P < 0.05) was “significantly blocked cocaine-mediated hyper-locomotion”. For the same compound, the “effect on locomotor activity at basal levels” value ([4]; mice, KVA-D-88 without cocaine) was “minimal effects”, the “effect on cocaine-mediated locomotor sensitization” value ([4]; mice, daily pre-administration before cocaine for 7 consecutive days) was “strikingly blocked cocaine-mediated locomotor sensitization” and the “half-life (t1/2)” value ([5]; i.v. injection 1 mg/kg) was 6.1 h. For the same compound, the “mean residence time (MRT)” value ([5]; i.v. injection 1 mg/kg) was 5.7 h, the “AUC from time zero to infinity (AUC∞)” value ([5]; i.v. injection 1 mg/kg, plasma) was 1387.9 ng/mL and the “AUC from time zero to the last measurable concentration (AUClast)” value ([5]; i.v. injection 1 mg/kg, plasma) was 1382.9 ng/mL. The “maximum plasma concentration (Cmax)” value ([5]; i.v. injection 1 mg/kg, plasma) was 898.2 ng/mL, the “AUC∞” value ([5]; oral gavage 10 mg/kg) was 10825.9 ng/mL and the “Cmax in the blood” value ([5]; oral gavage 10 mg/kg) was 2150.5 ng/mL. The “half-life (t1/2)” value ([5]; oral gavage 10 mg/kg) was 7.16 h, the “mean residence time (MRT)” value ([5]; oral gavage 10 mg/kg) was 9 h and the “time to reach maximum concentration in the blood (Tmax)” value ([5]; oral gavage 10 mg/kg) was 0.25 h. The half-life ([5]; through either i.v. injection or p.o. approach) was 6 to 7 h, the pIC50 [6] was 6.85 and the “average concentration in the blood” value ([7]; i.p. 10 mg/kg, 30 min later) was 3899.2 ng/mL. The “concentration ratio of brain: blood (Kp)” value ([7]; i.p. 10 mg/kg, 30 min later) was “approximately 0.6”, the “average concentration in the brain” value ([7]; i.p. 10 mg/kg, 30 min later, whole brain homogenates) was 2347.7 ng/g and the “concentration ratio (brain vs. plasma)” value ([7]; i.v. dosing as printed in the discussion) was 0.6. The “concentration ratio (brain vs. plasma)” value ([7]; p.o. dosing (10 mg/kg)) was 1.2 and the pIC50 [8] was 6.06.

In the case of `COc1ccc(C2CNC(=O)C2)cc1OC1CCCC1` (stereo not shown) [rolipram], the “Meth-mediated seeking and consumption behaviors” value [1] is given as “effective in attenuating”, the “cocaine-induced locomotor sensitization and conditional place preference” value ([9]; mice) is given as “attenuated” and the “cocaine reward, incentive saliency and seeking behavior” value ([9]; open field test, CPP and self-administration) is given as “reduce cocaine reward, incentive saliency and seeking behavior”. For the same compound, the “morphine-induced hyper-locomotor activity and CPP” value [10] was “reduced”, the alcohol intake [11] was “reduced alcohol intake” and the “2-bottle choice alcohol consumption and preference” value [12] was “decreased”. The alcohol self-administration [12] was “dose-dependently reduced”, the heroin self-administration ([13]; fixed ratio 1 (FR1)) was “did not significantly inhibit” and the “rewarding effects of heroin” value ([13]; progressive ratio (PR) paradigm) was “decreased the rewarding effects”.

In the case of `CC(N)C(=O)c1c(C(C)C)nn2ccccc12` (stereo not shown) [AV1013], the “Meth-induced hyper-locomotor activity and sensitization” value [2] is listed as “reduced”.

In the case of `CCOc1cc([C@@H](CS(C)(=O)=O)N2C(=O)c3cccc(NC(C)=O)c3C2=O)ccc1OC` [apremilast, reference compound], the “effect on numbers of cocaine self-intake” value ([3]; dose 5 mg/kg) is listed as “did not decrease”, the “effect on numbers of cocaine self-intake” value ([3]; dose 20 mg/kg) is listed as “significant its inhibitory effects” and the “reward-related behavior induced by alcohol” value [11] is listed as “decreasing the reward-related behavior induced by alcohol”.

In the case of `CCCCOc1cc(CC2CNC(=O)N2)ccc1OC` (stereo not shown) [Ro 20-1724], the alcohol intake [11] is given as “reduced alcohol intake”.
